Source: PMC11909324 (Journal of the Science of Food and Agriculture, 2024)
Where “and” joins values, the source holds several entries; their conditions need not be identical. Equal entries are not always repeated. Where two headings read alike, the source gives them in different places.

Columns and labels:
[1] = target: T1, xanthine oxidase (XO) (Bos taurus, UniProt P80457); assay: Reversibility of XO inhibition (preincubation, increasing xanthine concentrations); format: biochemical, bovine; settings: SBS 5 μmol L^−1, DSC and DSCS 0.5 μmol L^−1; 10 min preincubation; xanthine 5, 25, 50 μmol L^−1
T1 construct: XO (from bovine milk); purchased Merck (Darmstadt, Germany); host or cells: bovine milk (natural source)
Description: After 8 min incubation (700 rpm, 37 °C), the reaction was stopped, and the samples were treated in the same way as described in the previous paragraph.

[2] = target: T1, xanthine oxidase (XO); assay: XO assay with 6MP as substrate (6-thiouric acid formation, HPLC-UV); format: biochemical, bovine; settings: for IC50: XO 0.01 U mL^−1, 25 min, 37 °C, pH 7.5, read-out: IC50, 6MP oxidation; for fold stronger inhibition than APU, 6MP assay: based on IC50 values; for XO-catalyzed 6-thiouric acid formation: inhibitor 5 μmol L^−1; for α = IC50 of flavonoid/IC50 of positive control, 6MP oxidation: relative to APU; for lower decrease in metabolite formation in the 6MP assay than in the xanthine assay: difference between assays; for IC50(6MP)/IC50(xanthine): ratio of IC50 values with the two substrates;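 on all read-outs here: incubation in 0.05 mol L^−1 sodium phosphate buffer, with 6MP and 6-thiouric acid quantified by HPLC-UV and conversion taken as the product share of substrate plus product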
[3] = target: T1, xanthine oxidase (XO); assay: XO assay with xanthine as substrate (uric acid formation, HPLC-UV); format: biochemical, bovine; settings: for IC50: XO 0.0003 U mL^−1, 8 min, 37 °C, pH 7.5, read-out: IC50, xanthine oxidation; for IC50 / XO-catalyzed uric acid formation / decrease in uric acid production (inhibition of XO-catalyzed xanthine oxidation) / inhibition at 20 µM: xanthine 5 μmol L^−1; for XO-catalyzed uric acid formation: inhibitor 5 μmol L^−1; for α = IC50 of flavonoid/IC50 of positive control, xanthine oxidation: relative to APU; for decrease in uric acid production (inhibition of XO-catalyzed xanthine oxidation) / inhibition at 20 µM: inhibitor 20 μmol L^−1; for inhibition at 20 µM: read-out: decrease in uric acid production (inhibition of XO-catalyzed xanthine oxidation);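 on all read-outs here: incubations in 0.05 mol L^−1 sodium phosphate buffer, with uric acid and remaining xanthine both quantified by HPLC-UV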
[4] = target: T1, xanthine oxidase (XO); assay: Fluorescence quenching studies of polyphenol-XO complexes; format: binding, bovine; settings: for Log K SV ± SEM (Stern–Volmer quenching constant): K SV in L mol^−1
Description: Increasing concentrations of polyphenols (0, 2, 4, 6, 8 and 10 μmol L^−1) were added to a standard amount of XO (0.4 μmol L^−1) in sodium phosphate buffer (0.05 mol L^−1, pH 7.5). Then, the emission spectra of XO were recorded using 280 nm excitation wavelength. The inner‐filter effects of silymarin components/metabolites were corrected based on the following equation[39], [41], [42]: (1) Icor=Iobs×e^Aex+Aem/2 where I cor is the corrected and I obs is the observed emission intensity; while A ex and A em are the absorbance of polyphenols at the excitation and emission wavelengths applied, respectively. Polyphenol‐induced fluorescence quenching was evaluated at 335 nm. Stern–Volmer quenching constants (K SV; unit: L mol^−1) of polyphenol–XO complexes were determined using the graphical application of the Stern–Volmer equation[43], [44], [45]: (2) I0/I=1+KSV×Q where I 0 and I are the emission signals of XO without and with the polyphenols tested, respectively, and [Q] denotes the molar concentration (mol L^−1) of the quencher (polyphenols). The binding constants (K; unit: L mol^−1) of polyphenol–XO complexes were calculated applying the modified Stern–Volmer equation[43], [44], [45]: (3) I0/I0−I=1/fa×K×1/Q+1/fa where I 0, I and [Q] have the same meaning as in Eqn (2), and f a is the fraction of the accessible fluorophore.

[5] = λex 280 nm, λem 335 nm, XO 0.4 μmol L^−1, pH 7.5
[6] = association constant K in L mol^−1, λex 280 nm, λem 335 nm, XO 0.4 μmol L^−1, pH 7.5
[7] = inhibitor 20 μmol L^−1, 6MP 5 μmol L^−1
[8] = association constant K in L mol^−1, λex 280 nm, λem 335 nm, XO 0.4 μmol L^−1, pH 7.5, read-out: Log K ± SEM (binding constant, modified Stern–Volmer) (converted)

T1 sequence (P80457 whole entry): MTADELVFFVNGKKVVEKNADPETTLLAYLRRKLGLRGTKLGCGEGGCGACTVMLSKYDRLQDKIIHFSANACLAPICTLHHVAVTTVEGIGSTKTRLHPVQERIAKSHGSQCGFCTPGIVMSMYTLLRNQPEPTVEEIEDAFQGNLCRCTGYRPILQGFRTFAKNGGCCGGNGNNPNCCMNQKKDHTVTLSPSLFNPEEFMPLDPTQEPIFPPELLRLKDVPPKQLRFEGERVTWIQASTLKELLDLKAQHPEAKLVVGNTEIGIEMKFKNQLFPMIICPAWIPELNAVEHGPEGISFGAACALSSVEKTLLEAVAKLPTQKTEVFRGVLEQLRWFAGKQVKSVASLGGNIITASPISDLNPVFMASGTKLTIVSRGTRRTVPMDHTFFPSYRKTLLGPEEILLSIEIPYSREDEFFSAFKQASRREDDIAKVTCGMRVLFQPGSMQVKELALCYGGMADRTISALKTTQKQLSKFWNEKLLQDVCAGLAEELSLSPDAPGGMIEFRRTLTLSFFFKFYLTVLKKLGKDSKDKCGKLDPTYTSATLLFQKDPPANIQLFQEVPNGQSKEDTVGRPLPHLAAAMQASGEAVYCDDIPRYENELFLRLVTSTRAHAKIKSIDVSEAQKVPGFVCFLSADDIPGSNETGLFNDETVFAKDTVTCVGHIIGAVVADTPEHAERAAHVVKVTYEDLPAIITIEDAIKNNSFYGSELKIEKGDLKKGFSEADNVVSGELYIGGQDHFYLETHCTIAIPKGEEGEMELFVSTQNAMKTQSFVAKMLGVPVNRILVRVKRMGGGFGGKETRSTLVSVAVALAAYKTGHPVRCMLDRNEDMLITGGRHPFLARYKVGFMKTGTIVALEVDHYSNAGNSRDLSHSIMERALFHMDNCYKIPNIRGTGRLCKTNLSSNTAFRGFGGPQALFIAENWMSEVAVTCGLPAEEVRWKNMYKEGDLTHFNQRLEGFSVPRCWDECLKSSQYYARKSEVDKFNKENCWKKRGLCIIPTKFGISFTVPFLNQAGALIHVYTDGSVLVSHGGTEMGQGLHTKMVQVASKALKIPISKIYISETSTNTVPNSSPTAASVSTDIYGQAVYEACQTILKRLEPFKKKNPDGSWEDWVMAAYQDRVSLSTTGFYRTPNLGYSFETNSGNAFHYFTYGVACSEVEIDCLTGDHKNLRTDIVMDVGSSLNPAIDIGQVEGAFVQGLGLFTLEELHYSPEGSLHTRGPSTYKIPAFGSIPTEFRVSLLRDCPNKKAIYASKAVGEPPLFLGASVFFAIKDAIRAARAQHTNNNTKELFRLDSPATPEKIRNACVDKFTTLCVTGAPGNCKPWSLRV

| Molecule | IC50 ([2]; 6MP 5 μmol L^−1) [nM] | α = IC50 of flavonoid/IC50 of positive control, 6MP oxidation [2] | IC50 [3] | α = IC50 of flavonoid/IC50 of positive control, xanthine oxidation [3] | Log K SV ± SEM (Stern–Volmer quenching constant) [4, 5] | Log K ± SEM (binding constant, modified Stern–Volmer) [4, 6] | decrease in 6-thiouric acid formation (inhibition of XO-catalyzed 6MP oxidation) [2, 7] | decrease in uric acid production (inhibition of XO-catalyzed xanthine oxidation) [3] | also measured |
| --- | --- | --- | --- | --- | --- | --- | --- | --- | --- |
| COc1cc(C2Oc3c(O)cc(-c4oc5cc(O)cc(O)c5c(=O)c4O)cc3C2CO)ccc1OS(=O)(=O)O (mixture of isomers) [DSCS, 2,3‐dehydrosilychristin‐19‐O‐sulfate] | 210 | 0.05 | 80 nM | 0.31 | 4.68 ± 0.01 | 5.12 ± 0.03 | – | – | reversibility of the inhibitory action on XO [1]: reversible; fold stronger inhibition than APU, 6MP assay [2]: approximately 20 fold; XO-catalyzed 6-thiouric acid formation ([2]; 6MP 5 μmol L^−1): almost completely abolished; XO-catalyzed uric acid formation [3]: almost completely abolished; K (binding constant) of polyphenol–XO complex ([4]; fluorescence quenching): above 10^5 L mol^−1 |
| COc1cc(C2Oc3c(O)cc(C4Oc5cc(O)cc(O)c5C(=O)C4O)cc3C2CO)ccc1OS(=O)(=O)O (mixture of isomers) [SCS, silychristin‐19‐O‐sulfate] | – | – | – | – | 4.37 ± 0.03 | 4.66 ± 0.02 | weak to moderate inhibitors | weaker effect compared to its parent compound | lower decrease in metabolite formation in the 6MP assay than in the xanthine assay ([2]; inhibitor 20 μmol L^−1): ~20% |
| Oc1ncnc2[nH]ncc12 [APU, allopurinol, reference compound] | – | – | – | – | – | – | marked decreases | almost completely abolished metabolite formation | – |
| Oc1cc(O)c2c(c1)OC(c1ccc(O)c(O)c1)C(O)C2 (stereo not drawn) [CAT, catechin] | – | – | – | – | – | – | – | did not cause significant changes | – |
| COc1cc([C@@H]2Oc3c(O)cc(-c4oc5cc(O)cc(O)c5c(=O)c4O)cc3[C@H]2CO)ccc1O [DSC, 3,5,7‐trihydroxy‐2‐[(2R,3S)‐7‐hydroxy‐2‐(4‐hydroxy‐3‐methoxyphenyl)‐3‐(hydroxymethyl)‐2,3‐dihydro‐1‐benzofuran‐5‐yl]chromen‐4‐one] | 290 | 0.07 | 90 nM | 0.35 | 4.68 ± 0.01 | – | marked decreases | – | reversibility of the inhibitory action on XO [1]: reversible; fold stronger inhibition than APU, 6MP assay [2]: ~15 fold; XO-catalyzed 6-thiouric acid formation ([2]; 6MP 5 μmol L^−1): almost completely abolished; inhibition at 20 µM ([2]; inhibitor 20 μmol L^−1, 6MP 5 μmol L^−1, read-out: decrease in 6-thiouric acid formation (inhibition of XO-catalyzed 6MP oxidation)): > 80%; IC50(6MP)/IC50(xanthine) [2]: 3.2; fold stronger inhibitor of xanthine oxidation compared to SC ([3]; based on IC50 values): 50 fold; XO-catalyzed uric acid formation [3]: almost completely abolished; inhibition at 20 µM [3]: 96%; Kd [4, 8]: 7760 nM; Kd ([4]; fluorescence quenching, read-out: K (binding constant) of polyphenol–XO complex): < 10000 nM |
| O=C(O[C@@H]1Cc2c(O)cc(O)cc2O[C@@H]1c1ccc(O)c(O)c1)c1cc(O)c(O)c(O)c1 [ECG, epicatechin gallate] | – | – | – | – | – | – | weak to moderate inhibitors | – | inhibition at 20 µM [3]: ~50% |
| Oc1cc(O)c2c(c1)O[C@H](c1ccc(O)c(O)c1)[C@H](O)C2 [ECT, epicatechin] | – | – | – | – | – | – | – | did not cause significant changes | – |
| Oc1cc(O)c2c(c1)O[C@H](c1cc(O)c(O)c(O)c1)[C@H](O)C2 [EGC, epigallocatechin] | – | – | – | – | – | – | only slight inhibitory action | did not cause significant changes | – |
| O=C(O[C@@H]1Cc2c(O)cc(O)cc2O[C@@H]1c1cc(O)c(O)c(O)c1)c1cc(O)c(O)c(O)c1 [EGCG, epigallocatechin gallate] | – | – | – | – | – | – | weak to moderate inhibitors | approximately 50% | – |
| COc1cc([C@H]2Oc3ccc([C@H]4Oc5cc(O)cc(O)c5C(=O)[C@@H]4O)cc3O[C@@H]2CO)ccc1O [ISA, isosilybin A] | – | – | – | – | 4.46 ± 0.01 | – | weak to moderate inhibitors | – | lower decrease in metabolite formation in the 6MP assay than in the xanthine assay ([2]; inhibitor 20 μmol L^−1): ~20%; inhibition at 20 µM [3]: 64%; Kd [4, 8]: 18200 nM |
| COc1cc([C@H]2Oc3cc([C@H]4Oc5cc(O)cc(O)c5C(=O)[C@@H]4O)ccc3O[C@@H]2CO)ccc1O [SA, silybin A] | – | – | – | – | 4.45 ± 0.04 | – | weak to moderate inhibitors | only weak inhibitors | Kd [4, 8]: 19500 nM |
| COc1cc([C@H]2Oc3cc([C@H]4Oc5cc(O)cc(O)c5C(=O)[C@@H]4O)ccc3O[C@@H]2CO)ccc1OS(=O)(=O)O [SAS, silybin A‐20‐O‐sulfate] | 2910 | 0.69 | 1400 nM and 1430 nM | 5.50 | 4.58 ± 0.03 | 4.99 ± 0.05 | – | more than 80% | IC50(6MP)/IC50(xanthine) [2]: 2.0 |
| COc1cc([C@@H]2Oc3cc([C@H]4Oc5cc(O)cc(O)c5C(=O)[C@@H]4O)ccc3O[C@H]2CO)ccc1O [SB, (2R,3R)‐3,5,7‐trihydroxy‐2‐[(2S,3S)‐3‐(4‐hydroxy‐3‐methoxyphenyl)‐2‐(hydroxymethyl)‐2,3‐dihydro‐1,4‐benzodioxin‐6‐yl]‐2,3‐dihydrochromen‐4‐one] | – | – | – | – | 4.49 ± 0.01 | – | weak to moderate inhibitors | only weak inhibitors | Kd [4, 8]: 13500 nM |
| COc1cc([C@@H]2Oc3c(O)cc([C@H]4Oc5cc(O)cc(O)c5C(=O)[C@@H]4O)cc3[C@H]2CO)ccc1O [SC, silychristin] | 10000 | 2.38 | 4500 nM | 17.3 | 4.43 ± 0.01 | 4.81 ± 0.01 | – | – | IC50(6MP)/IC50(xanthine) [2]: 2.2 |
| isosilybin A‐20‐O‐sulfate [ISAS] | 2860 | 0.68 | 680 nM | 2.62 | 4.49 ± 0.01 | 4.90 ± 0.04 | – | more than 80% | IC50(6MP)/IC50(xanthine) [2]: 4.2 |
